24 compounds from patent publication US10287301B2 (Achillion Pharmaceuticals, Inc., priority 2015, dated 2019) can be followed below.

Structures are written as SMILES.

Sequence of Human Factor D (P00746 26-253): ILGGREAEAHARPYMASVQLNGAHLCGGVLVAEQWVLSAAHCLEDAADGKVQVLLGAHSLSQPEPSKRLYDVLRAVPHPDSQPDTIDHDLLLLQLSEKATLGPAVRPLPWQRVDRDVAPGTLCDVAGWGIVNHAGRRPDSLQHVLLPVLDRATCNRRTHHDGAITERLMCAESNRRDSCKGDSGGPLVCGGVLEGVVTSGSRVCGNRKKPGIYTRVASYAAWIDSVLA

The target of this assay is Human Factor D (Homo sapiens (Human), UniProt P00746). The assay is described as follows: Human Factor D Assay. The format is biochemical. The following applies: Human Factor D, Table 3; read-out: IC50. An outline of the steps:
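First, compound at various concentrations is mixed with 80 nM (final) human serum Factor D in 50 mM Tris, 1M NaCl, pH 7.5 for 5 min at room temperature.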
For `CC(=O)c1nn(CC(=O)N2[C@H](C(=O)Nc3cccc(C(F)(F)F)n3)C[C@@]3(C)C[C@@H]23)c2ccc(-c3cnc(C)nc3)cc12` [Compound 631, (1R,3S,5R)-2-(2-(3-acetyl-5-(2-methylpyrimidin-5-yl)-1H-indazol-1-yl)acetyl)-5-methyl-N-(6-(trifluoromethyl)pyridin-2-yl)-2-azabicyclo[3.1.0] hexane-3-carboxamide], the IC50 (commonly the concentration that gives 50% inhibition) was under 1 µM.

As for `COc1ncc(-c2ccc3c(c2)c(C(C)=O)nn3CC(=O)N2[C@H](C(=O)Nc3nc(Br)ccc3C)C[C@@]3(C)C[C@@H]23)cn1` [Compound 632, (1R,3S,5R)-2-(2-(3-Acetyl-5-(2-methoxypyrimidin-5-yl)-1H-indazol-1-yl)acetyl)-N-(6-bromo-3-methylpyridin-2-yl)-5-methyl-2-azabicyclo[3.1.0]hexane-3-carboxamide], the 50% inhibitory concentration (IC50) is under 1 µM.

Take `CC(=O)c1nn(CC(=O)N2C[C@H](F)C[C@H]2C(=O)Nc2cccc(Br)n2)c2cnc(-c3cnc(C)nc3)cc12` [Compound 633, (2S,4R)-1-(2-(3-Acetyl-5-(2-methylpyrimidin-5-yl)-1H-pyrazolo[3,4-c]pyridin-1-yl)acetyl)-N-(6-bromopyridin-2-yl)-4-fluoropyrrolidine-2-carboxamide]: the IC50 was under 1 µM.

With `COc1ncc(-c2ccc3c(c2)c(C(C)=O)nn3CC(=O)N2C[C@H]3C[C@H]3[C@H]2C(=O)Nc2nc(Br)ccc2C)cn1` [Compound 634, (1R,2S,5S)-3-(2-(3-Acetyl-5-(2-methoxypyrimidin-5-yl)-1H-indazol-1-yl)acetyl)-N-(6-bromo-3-methylpyridin-2-yl)-3-azabicyclo[3.1.0]hexane-2-carboxamide], the IC50 is under 1 µM.

On to `CC(=O)c1nn(CC(=O)N2C[C@H]3C[C@H]3[C@H]2C(=O)Nc2nc(Br)ccc2C)c2ccc(-c3cnc(N)nc3)cc12` [Compound 635, (1R,2S,5S)-3-(2-(3-Acetyl-5-(2-aminopyrimidin-5-yl)-1H-indazol-1-yl)acetyl)-N-(6-bromo-3-methylpyridin-2-yl)-3-azabicyclo[3.1.0]hexane-2-carboxamide], for which the IC50 is under 1 µM.

`CC(=O)c1nn(CC(=O)N2[C@H](C(=O)Nc3nc(Br)ccc3C)C[C@@]3(C)C[C@@H]23)c2c(C)cc(-c3cnc(C)nc3)cc12` [Compound 636, (1R,3S,5R)-2-(2-(3-Acetyl-7-methyl-5-(2-methylpyrimidin-5-yl)-1H-indazol-1-yl)acetyl)-N-(6-bromo-3-methylpyridin-2-yl)-5-methyl-2-azabicyclo[3.1.0]hexane-3-carboxamide]: the IC50 is under 1 µM.

With `CC(=O)c1nn(CC(=O)N2C[C@H]3C[C@H]3[C@H]2C(=O)Nc2nc(Br)ccc2C2CC2)c2ccc(-c3cnc(C)nc3)cc12` [Compound 637, (1R,2S,5S)-3-(2-(3-Acetyl-5-(2-methylpyrimidin-5-yl)-1H-indazol-1-yl)acetyl)-N-(6-bromo-3-cyclopropylpyridin-2-yl)-3-azabicyclo[3.1.0]hexane-2-carboxamide], the IC50 was under 1 µM.

As to `CC(=O)c1nn(CC(=O)N2C[C@H]3C[C@H]3[C@H]2C(=O)Nc2ccn(CC(F)(F)F)n2)c2ccc(-c3cnc(C)nc3)cc12` [Compound 638, (1R,2S,5S)-3-(2-(3-Acetyl-5-(2-methylpyrimidin-5-yl)-1H-indazol-1-yl)acetyl)-N-(1-(2,2,2-trifluoroethyl)-1H-pyrazol-3-yl)-3-azabicyclo[3.1.0]hexane-2-carboxamide], the IC50 is under 1 µM.

As for `CC(=O)c1nn(CC(=O)N2C[C@@](F)(CN(C)C)C[C@H]2C(=O)Nc2cccc(Br)n2)c2ccc(-c3cnc(C)nc3)cc12` [Compound 639, (2S,4S)-1-(2-(3-Acetyl-5-(2-methylpyrimidin-5-yl)-1H-indazol-1-yl)acetyl)-N-(6-bromopyridin-2-yl)-4-((dimethylamino)methyl)-4-fluoropyrrolidine-2-carboxamide], the IC50 is under 1 µM.

As for `CC(=O)c1nn(CC(=O)N2[C@H](C(=O)Nc3cncc(C(F)(F)F)n3)C[C@@]3(C)C[C@@H]23)c2ccc(-c3cnc(C)nc3)cc12` [Compound 640, (1R,3S,5R)-2-(2-(3-acetyl-5-(2-methylpyrimidin-5-yl)-1H-indazol-1-yl)acetyl)-5-methyl-N-(6-(trifluoromethyl)pyrazin-2-yl)-2-azabicyclo[3.1.0] hexane-3-carboxamide], the IC50 is under 1 µM.

With `COc1ncc(-c2ccc3c(c2)c(C(C)=O)nn3CC(=O)N2C[C@H]3C[C@H]3[C@H]2C(=O)Nc2nc(Br)ccc2C2CC2)cn1` [Compound 641, (1R,2S,5S)-3-(2-(3-Acetyl-5-(2-methoxypyrimidin-5-yl)-1H-indazol-1-yl)acetyl)-N-(6-bromo-3-cyclopropylpyridin-2-yl)-3-azabicyclo[3.1.0]hexane-2-carboxamide], the IC50 is under 1 µM.

`CC(=O)c1nn(CC(=O)N2C[C@@H](C)C[C@H]2C(=O)Nc2nc(Br)ccc2C)c2ccc(-c3cnc(C)nc3)cc12` [Compound 643, (2S,4S)-1-(2-(3-Acetyl-5-(2-methylpyrimidin-5-yl)-1H-indazol-1-yl)acetyl)-N-(6-bromo-3-methylpyridin-2-yl)-4-methylpyrrolidine-2-carboxamide]: the IC50 is under 1 µM.

`CC(=O)c1nn(CC(=O)N2C[C@H](C)C[C@H]2C(=O)Nc2nc(Br)ccc2C)c2ccc(-c3cnc(C)nc3)cc12` [Compound 644, (2S,4R)-1-(2-(3-Acetyl-5-(2-methylpyrimidin-5-yl)-1H-indazol-1-yl)acetyl)-N-(6-bromo-3-methylpyridin-2-yl)-4-methylpyrrolidine-2-carboxamide]: the IC50 is under 1 µM.

Regarding `CC(=O)c1nn(CC(=O)N2C[C@@](F)(CN(C)C)C[C@H]2C(=O)Nc2nc(Br)ccc2C)c2ccc(-c3cnc(C)nc3)cc12` [Compound 645, (2S,4S)-1-(2-(3-Acetyl-5-(2-methylpyrimidin-5-yl)-1H-indazol-1-yl)acetyl)-N-(6-bromo-3-methylpyridin-2-yl)-4-((dimethylamino)methyl)-4-fluoropyrrolidine-2-carboxamide], the IC50 is under 1 µM.

With `CC(=O)c1nn(CC(=O)N2[C@@H](C)CC[C@H]2C(=O)Nc2nc(Br)ccc2C)c2ccc(-c3cnc(C)nc3)cc12` [Compound 646, (2S,5S)-1-(2-(3-Acetyl-5-(2-methylpyrimidin-5-yl)-1H-indazol-1-yl)acetyl)-N-(6-bromo-3-methylpyridin-2-yl)-5-methylpyrrolidine-2-carboxamide], the 50% inhibitory concentration (IC50) was under 1 µM.

Consider `CC(=O)c1nn(CC(=O)N2[C@H](C(=O)Nc3nc(Br)ccc3C)C[C@@H]3C[C@@H]32)c2ccc(-c3cnc(C)nc3)cc12` [Compound 647, (1S,3S,5S)-2-(2-(3-Acetyl-5-(2-methylpyrimidin-5-yl)-1H-indazol-1-yl)acetyl)-N-(6-bromo-3-methylpyridin-2-yl)-2-azabicyclo[3.1.0]hexane-3-carboxamide], for which the IC50 was under 1 µM.

On to `CC(=O)c1nn(CC(=O)N2C[C@H](F)C[C@@H]2C(=O)Nc2nc(Br)ccc2C(=O)O)c2ccc(-c3cnc(C)nc3)cc12` [Compound 648, 2-((2R,4R)-1-(2-(3-Acetyl-5-(2-methylpyrimidin-5-yl)-1H-indazol-1-yl)acetyl)-4-fluoropyrrolidine-2-carboxamido)-6-bromonicotinic acid], for which the IC50 is over 10 µM.

`CC(=O)c1nn(CC(=O)N2C[C@H](F)C[C@H]2C(=O)Nc2cccc(Br)n2)c2ccc(-c3cnc(Cl)nc3)cc12` [Compound 651, (2S,4R)-1-(2-(3-Acetyl-5-(2-chloropyrimidin-5-yl)-1H-indazol-1-yl)acetyl)-N-(6-bromopyridin-2-yl)-4-fluoropyrrolidine-2-carboxamide]: the IC50 is over 10 µM.

On to `CC(=O)c1nn(CC(=O)N2C[C@H]3C[C@H]3[C@H]2C(=O)Nc2nc(Br)ccc2C)c2c(C)cc(-c3cnc(C)nc3)cc12` [Compound 652, (1R,2S,5S)-3-(2-(3-Acetyl-7-methyl-5-(2-methylpyrimidin-5-yl)-1H-indazol-1-yl)acetyl)-N-(6-bromo-3-methylpyridin-2-yl)-3-azabicyclo[3.1.0]hexane-2-carboxamide], for which the half-inhibitory concentration (IC50) was under 1 µM.

Consider `CC(=O)c1nn(CC(=O)N2C[C@H](F)C[C@H]2C(=O)Nc2cncc(Br)n2)c2ccc(-c3ccc4nc(C)cn4c3)cc12` [Compound 654, (2S,4R)-1-(2-(3-Acetyl-5-(2-methylimidazo[1,2-a]pyridin-6-yl)-1H-indazol-1-yl)acetyl)-N-(6-bromopyrazin-2-yl)-4-fluoropyrrolidine-2-carboxamide], for which the IC50 was under 1 µM.

`CC(=O)c1nn(CC(=O)N2C[C@H](F)C[C@H]2C(=O)Nc2cncc(Br)n2)c2ccc(-c3cnc4cc(C5CC5)nn4c3)cc12` [Compound 655, (2S,4R)-1-(2-(3-Acetyl-5-(2-cyclopropylpyrazolo[1,5-a]pyrimidin-6-yl)-1H-indazol-1-yl)acetyl)-N-(6-bromopyrazin-2-yl)-4-fluoropyrrolidine-2-carboxamide]: the IC50 is under 1 µM.

Regarding `CC(=O)c1cn(CC(=O)N2C[C@H](F)C[C@H]2C(=O)Nc2cccc(OC(F)(F)F)n2)c2ccc(-c3cnc4cc(C)nn4c3)cc12` [Compound 656, (2S,4R)-1-(2-(3-Acetyl-5-(2-methylpyrazolo[1,5-a]pyrimidin-6-yl)-1H-indol-1-yl)acetyl)-4-fluoro-N-(6-(trifluoromethoxy)pyridin-2-yl)pyrrolidine-2-carboxamide], the IC50 is under 1 µM.

For `CC(=O)c1cn(CC(=O)N2C[C@H](F)C[C@H]2C(=O)Nc2cc(C)cc(Br)n2)c2ccc(-c3cnc4cc(C)nn4c3)cc12` [Compound 657, (2S,4R)-1-(2-(3-Acetyl-5-(2-methylpyrazolo[1,5-a]pyrimidin-6-yl)-1H-indol-1-yl)acetyl)-N-(6-bromo-4-methylpyridin-2-yl)-4-fluoropyrrolidine-2-carboxamide], the IC50 was under 1 µM.

For `CC(=O)c1nn(CC(=O)N2C[C@H](F)C[C@H]2C(=O)Nc2cccc(OC(F)F)n2)c2ccc(-c3cnc4cc(C)nn4c3)cc12` [Compound 658, (2S,4R)-1-(2-(3-Acetyl-5-(2-methylpyrazolo[1,5-a]pyrimidin-6-yl)-1H-indazol-1-yl)acetyl)-N-(6-(difluoromethoxy)pyridin-2-yl)-4-fluoropyrrolidine-2-carboxamide], the IC50 was under 1 µM.
